Data reported in PMC4357467, “A Mouse Model of L-2-Hydroxyglutaric Aciduria, a Disorder of Metabolite Repair” (PLoS ONE, 2015).

Assays:
[1] = target: T1, Lysine-α-ketoglutarate reductase (bifunctional lysine-α-ketoglutarate reductase/saccharopine dehydrogenase) (Mus musculus, UniProt Q99K67); experiment: spectrophotometric enzyme assay (NADPH), partially purified native liver enzyme; type: biochemical
T1 construct: gene Aass; native bifunctional enzyme, partially purified from liver (15 000 x g supernatant, Blue Trisacryl column)
T1 sequence (Q99K67 28-926): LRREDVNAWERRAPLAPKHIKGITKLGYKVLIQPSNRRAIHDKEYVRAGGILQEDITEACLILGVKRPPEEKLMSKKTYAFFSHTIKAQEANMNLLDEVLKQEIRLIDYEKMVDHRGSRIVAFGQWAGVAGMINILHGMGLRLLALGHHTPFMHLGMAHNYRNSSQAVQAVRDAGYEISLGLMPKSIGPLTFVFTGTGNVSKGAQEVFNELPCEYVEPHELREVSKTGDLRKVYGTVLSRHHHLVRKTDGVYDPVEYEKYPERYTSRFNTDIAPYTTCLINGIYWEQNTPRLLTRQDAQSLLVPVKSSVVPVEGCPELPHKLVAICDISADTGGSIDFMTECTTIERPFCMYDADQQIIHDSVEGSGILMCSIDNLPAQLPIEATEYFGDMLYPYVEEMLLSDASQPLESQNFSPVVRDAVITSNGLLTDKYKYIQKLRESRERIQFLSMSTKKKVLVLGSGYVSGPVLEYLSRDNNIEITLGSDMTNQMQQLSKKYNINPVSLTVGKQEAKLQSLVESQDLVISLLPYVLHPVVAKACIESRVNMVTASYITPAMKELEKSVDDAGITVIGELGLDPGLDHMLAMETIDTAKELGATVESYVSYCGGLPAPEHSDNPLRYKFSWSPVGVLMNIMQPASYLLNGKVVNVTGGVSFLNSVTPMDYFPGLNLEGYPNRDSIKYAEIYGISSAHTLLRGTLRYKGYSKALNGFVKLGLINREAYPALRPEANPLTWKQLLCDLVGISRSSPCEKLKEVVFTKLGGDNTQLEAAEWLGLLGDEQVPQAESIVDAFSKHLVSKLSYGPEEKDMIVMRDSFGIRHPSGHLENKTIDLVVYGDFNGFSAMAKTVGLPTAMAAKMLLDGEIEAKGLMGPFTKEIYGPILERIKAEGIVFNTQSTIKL

[2] = target: T1, Lysine-α-ketoglutarate reductase (bifunctional lysine-α-ketoglutarate reductase/saccharopine dehydrogenase); experiment: as above; type: biochemical; conditions: 25 mM Hepes pH 8.0, 30°C, 0.15 mM NADPH, 1 mM dithiothreitol, 10 mM lysine, 2 mM α-ketoglutarate

Compound	Ki [1] [µM]	spectrophotometric enzyme assay (NADPH), partially purified native liver enzyme [2]
O=C(O)CC[C@H](O)C(=O)O [L-2-hydroxyglutarate]	700	
O=C(O)CC[C@@H](O)C(=O)O [D-2-hydroxyglutarate]		almost no inhibition was observed with D-2-hydroxyglutarate
